Read-outs that look alike come from different tables or passages of the source. *1 amine or outer side, *2 acyl side, *3 side chain or, on linkers, in order; H or OH if unused. Where a SMILES comes first, the peptide text is derived from it. Side-chain parts run from the residue outwards. [ ]: non-standard residue; d: D form. The star is where a group is joined. αMePhe(2-F) = C[C@](N)(Cc1ccccc1F)C(=O)O; γGlu = O=C(O)[C@H](CCC(=O)[*:2])N[*:1]; C14 diacid = O=C(O)CCCCCCCCCCCCC(=O)*; αMeF = C[C@](N)(Cc1ccccc1)C(=O)O; 4Pal = N[C@@H](Cc1ccncc1)C(=O)O; αMeL = CC(C)C[C@](C)(N)C(=O)O; Orn = NCCC[C@H](N)C(=O)O; AEEA = NCCOCCOCC(=O)O; Aib = CC(C)(N)C(=O)O

Common to all, as to assay type: cell-based
One experiment has as its target T1, hGIPR (Homo sapiens, UniProt P48546).
T1 construct: expressed in transfected cells
T1 sequence (P48546 22-466): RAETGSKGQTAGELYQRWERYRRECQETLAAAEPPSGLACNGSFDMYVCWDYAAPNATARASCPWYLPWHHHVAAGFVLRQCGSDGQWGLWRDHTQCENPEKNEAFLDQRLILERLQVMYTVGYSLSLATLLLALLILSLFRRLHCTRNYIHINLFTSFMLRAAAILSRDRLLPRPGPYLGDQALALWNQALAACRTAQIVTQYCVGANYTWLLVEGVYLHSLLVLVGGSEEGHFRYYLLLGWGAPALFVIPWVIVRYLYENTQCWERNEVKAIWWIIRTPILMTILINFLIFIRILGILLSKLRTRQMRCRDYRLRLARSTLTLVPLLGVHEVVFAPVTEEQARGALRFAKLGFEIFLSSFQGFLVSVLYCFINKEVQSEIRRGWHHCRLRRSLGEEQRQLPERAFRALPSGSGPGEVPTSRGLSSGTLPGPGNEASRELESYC
Description: Functional cAMP formation (HTRF) in HEK-293 clonal cells expressing hGIPR, 0.1% bovine casein, without or with 1.0% human serum albumin. The conditions noted are these: for EC50: geometric mean. In a few lines: (§1)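 Cells were stimulated with peptide for 30 min at 37° C, then lysed in buffer carrying cAMP-d2 and anti-cAMP Eu3+-cryptate for a competitive HTRF read after at least 60 min at room temperature. The 665/620 nm ratio was converted to nM cAMP against a standard curve.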

The next experiment deals with T2, hGCGR (Homo sapiens, UniProt P47871).
T2 construct: expressed in transfected cells
T2 sequence (P47871 26-477): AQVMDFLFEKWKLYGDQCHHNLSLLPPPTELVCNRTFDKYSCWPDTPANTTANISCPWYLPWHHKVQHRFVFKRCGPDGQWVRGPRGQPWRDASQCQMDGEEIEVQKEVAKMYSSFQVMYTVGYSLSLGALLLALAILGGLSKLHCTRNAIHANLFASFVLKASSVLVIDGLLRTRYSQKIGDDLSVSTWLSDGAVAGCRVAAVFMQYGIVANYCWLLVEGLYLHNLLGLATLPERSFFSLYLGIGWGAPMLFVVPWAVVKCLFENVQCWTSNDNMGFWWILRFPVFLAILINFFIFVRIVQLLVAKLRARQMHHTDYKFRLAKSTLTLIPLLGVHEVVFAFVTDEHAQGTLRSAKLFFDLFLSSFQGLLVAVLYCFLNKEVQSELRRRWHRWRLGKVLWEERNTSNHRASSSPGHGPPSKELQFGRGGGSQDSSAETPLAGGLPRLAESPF
Description: Functional cAMP formation (HTRF) in HEK-293 clonal cells expressing hGCGR, 0.1% bovine casein, without or with 1.0% human serum albumin. Particulars: geometric mean. In a few lines: as §1
(Cyclic AMP is a second messenger, typically raised through Gs and lowered through Gi signalling.)

The target in the next experiment is hGLP-1R (Homo sapiens, UniProt P43220). Description: Functional cAMP formation (HTRF) in HEK-293 clonal cells expressing hGLP-1R, 0.1% bovine casein, without or with 1.0% human serum albumin. Also on record: expressed in transfected cells. The conditions noted are these: for EC50: geometric mean; for Emax: read-out: hGLP-1R Emax, % ± SEM. In a few lines:
as §1

Where [1] appears, read: HEK293, 0.1% bovine casein and 1.0% human serum albumin, 37° C., percent of maximal response to GIP(1-42)NH2, read-out: hGIPR Emax, % ± SEM.
The mark [2] stands for this setting: HEK293, percent of maximal response to GIP(1-42)NH2, 37° C., 0.1% bovine casein, arithmetic mean, read-out: hGIPR Emax, % ± SEM.
[3] abbreviates: cAMP, incubated at 37° C., 0.1% bovine casein (no human serum albumin), read-out: hGIPR EC50, nM (SEM, n).
[4] abbreviates: 0.1% bovine casein and 1.0% human serum albumin, 37° C., read-out: hGCGR EC50, nM (SEM, n).
Where [5] appears, read: cAMP, incubated at 37° C., 0.1% bovine casein (no human serum albumin), read-out: hGCGR EC50, nM (SEM, n).
[6] abbreviates: 0.1% bovine casein and 1.0% human serum albumin, 37° C., read-out: hGLP-1R EC50, nM (SEM, n).

Sequence of hGLP-1R (P43220 24-463): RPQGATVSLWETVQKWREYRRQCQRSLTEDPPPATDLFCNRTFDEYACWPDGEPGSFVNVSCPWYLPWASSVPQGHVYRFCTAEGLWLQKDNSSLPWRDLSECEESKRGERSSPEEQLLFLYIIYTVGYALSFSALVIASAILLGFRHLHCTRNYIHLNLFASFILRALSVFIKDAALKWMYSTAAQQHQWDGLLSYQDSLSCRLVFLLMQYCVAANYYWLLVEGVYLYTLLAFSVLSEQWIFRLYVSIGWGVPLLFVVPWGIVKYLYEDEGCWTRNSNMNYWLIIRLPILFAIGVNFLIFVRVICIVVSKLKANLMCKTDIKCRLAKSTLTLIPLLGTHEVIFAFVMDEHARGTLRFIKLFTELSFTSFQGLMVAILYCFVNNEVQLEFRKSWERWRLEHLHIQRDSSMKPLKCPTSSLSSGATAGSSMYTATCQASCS

With `CC[C@H](C)[C@H](NC(=O)[C@H](CCCN)NC(=O)[C@H](CC(=O)O)NC(=O)[C@H](CC(C)C)NC(=O)[C@](C)(CC(C)C)NC(=O)[C@@H](NC(=O)[C@H](CO)NC(=O)[C@H](Cc1ccncc1)NC(=O)[C@H](CC(=O)O)NC(=O)[C@H](CO)NC(=O)[C@@H](NC(=O)[C@](C)(Cc1ccccc1F)NC(=O)[C@@H](NC(=O)CNC(=O)[C@H](CCC(=O)O)NC(=O)C(C)(C)NC(=O)[C@@H](N)Cc1ccc(O)cc1)[C@@H](C)O)[C@@H](C)O)[C@@H](C)CC)C(=O)N[C@@H](C)C(=O)N[C@@H](CCC(N)=O)C(=O)NC(C)(C)C(=O)N[C@@H](CCCCNC(=O)COCCOCCNC(=O)COCCOCCNC(=O)CC[C@H](NC(=O)CCCCCCCCCCCCC(=O)O)C(=O)O)C(=O)N[C@@H](Cc1ccccc1)C(=O)N[C@H](C(=O)N[C@@H](CCCCNC(=O)COCCOCCNC(=O)COCCOCCNC(=O)CC[C@H](NC(=O)CCCCCCCCCCCCC(=O)O)C(=O)O)C(=O)N[C@@](C)(Cc1ccc(O)cc1)C(=O)N[C@@H](CC(C)C)C(=O)N[C@H](C(=O)N[C@@H](CCC(=O)O)C(=O)NCC(=O)NCC(=O)N1CCC[C@H]1C(=O)N[C@@H](CO)C(=O)N[C@@H](CO)C(=O)NCC(=O)N[C@@H](C)C(=O)N1CCC[C@H]1C(=O)N1CCC[C@H]1C(=O)N1CCC[C@H]1C(=O)N[C@@H](CO)C(N)=O)[C@@H](C)CC)[C@@H](C)CC` [Example 69], the Emax on hGIPR (HEK293, read-out: hGIPR Emax, % ± SEM, 0.1% bovine casein and 1.0% human serum albumin, 37° C., percent of maximal response to GIP(1-42)NH2) was found to be 86.8%; on hGIPR (HEK293, read-out: hGIPR Emax, % ± SEM, percent of maximal response to GIP(1-42)NH2, 37° C., 0.1% bovine casein, arithmetic mean), 99 ± 2.43%. In addition, the EC50 on hGIPR (hGIPR EC50, nM (SEM, n), 0.1% bovine casein and 1.0% human serum albumin, 37° C.) is 2.32 nM; at hGIPR (hGIPR EC50, nM (SEM, n), cAMP, incubated at 37° C., 0.1% bovine casein (no human serum albumin)), 0.0265 nM; at hGCGR (hGCGR EC50, nM (SEM, n), 0.1% bovine casein and 1.0% human serum albumin, 37° C.), > 9950 nM; at hGCGR (hGCGR EC50, nM (SEM, n), cAMP, incubated at 37° C., 0.1% bovine casein (no human serum albumin)), > 9950 nM; at hGLP-1R (hGLP-1R EC50, nM (SEM, n), 0.1% bovine casein and 1.0% human serum albumin, 37° C.), 18.9 nM.

For `CC[C@H](C)[C@H](NC(=O)[C@H](CC(C)C)NC(=O)[C@](C)(Cc1ccc(O)cc1)NC(=O)[C@@H](CCC(=O)O)NC(=O)[C@@H](NC(=O)[C@H](Cc1ccccc1)NC(=O)[C@H](CCCCNC(=O)COCCOCCNC(=O)COCCOCCNC(=O)CC[C@H](NC(=O)CCCc1ccc(C(C)(C)C)cc1)C(=O)O)NC(=O)C(C)(C)NC(=O)[C@H](CCC(N)=O)NC(=O)[C@H](C)NC(=O)[C@H](CCCCNC(=O)COCCOCCNC(=O)COCCOCCNC(=O)CC[C@H](NC(=O)CCCc1ccc(C(C)(C)C)cc1)C(=O)O)NC(=O)[C@H](CCCN)NC(=O)[C@H](CC(=O)O)NC(=O)[C@H](CC(C)C)NC(=O)[C@](C)(CC(C)C)NC(=O)[C@@H](NC(=O)[C@H](CO)NC(=O)[C@H](Cc1ccncc1)NC(=O)[C@H](CC(=O)O)NC(=O)[C@H](CO)NC(=O)[C@@H](NC(=O)[C@](C)(Cc1ccccc1F)NC(=O)[C@@H](NC(=O)CNC(=O)[C@H](CCC(=O)O)NC(=O)C(C)(C)NC(=O)[C@@H](N)Cc1ccc(O)cc1)[C@@H](C)O)[C@@H](C)O)[C@@H](C)CC)[C@@H](C)CC)C(=O)N[C@@H](CCC(=O)O)C(=O)NCC(=O)NCC(=O)N1CCC[C@H]1C(=O)N[C@@H](CO)C(=O)N[C@@H](CO)C(=O)NCC(=O)N[C@@H](C)C(=O)N1CCC[C@H]1C(=O)N1CCC[C@H]1C(=O)N1CCC[C@H]1C(=O)N[C@@H](CO)C(N)=O` [Example 131], the EC50 on hGIPR (0.1% bovine casein and 1.0% human serum albumin, 37° C., read-out: hGIPR EC50, nM (SEM, n)) is 0.0581 nM; on hGIPR (setting [3]) it was 0.0156 nM; on hGCGR (setting [4]), > 9950 nM; on hGCGR (setting [5]), > 9950 nM; on hGLP-1R (setting [6]) it was 1.04 nM; at hGLP-1R (cAMP, incubated at 37° C., 0.1% bovine casein (no human serum albumin), read-out: hGLP-1R EC50, nM (SEM, n)) it was 0.19 nM. The Emax at hGIPR (setting [1]) is 90.4 ± 1.62%; at hGIPR (setting [2]), 96.4 ± 1.95%; on hGLP-1R (HEK293, 0.1% bovine casein and 1.0% human serum albumin, 37° C., percent of maximal response to GLP-1(7-36)NH2), 112 ± 1.76%.

`CC[C@H](C)[C@H](NC(=O)[C@H](CC(C)C)NC(=O)[C@](C)(Cc1ccc(O)cc1)NC(=O)[C@@H](CCC(=O)O)NC(=O)[C@@H](NC(=O)[C@H](Cc1ccccc1)NC(=O)[C@H](CCCCNC(=O)COCCOCCNC(=O)COCCOCCNC(=O)CC[C@H](NC(=O)CCCCCCCCCCCCC(=O)O)C(=O)O)NC(=O)C(C)(C)NC(=O)[C@H](CCC(N)=O)NC(=O)[C@H](C)NC(=O)[C@H](CCCCNC(=O)COCCOCCNC(=O)COCCOCCNC(=O)CC[C@H](NC(=O)CCCCCCCCCCCCC(=O)O)C(=O)O)NC(=O)[C@H](CCCN)NC(=O)[C@H](CC(=O)O)NC(=O)[C@H](CC(C)C)NC(=O)[C@](C)(CC(C)C)NC(=O)[C@@H](NC(=O)[C@H](CO)NC(=O)[C@H](Cc1ccc2ccccc2c1)NC(=O)[C@H](CC(=O)O)NC(=O)[C@H](CO)NC(=O)[C@@H](NC(=O)[C@](C)(Cc1ccccc1F)NC(=O)[C@@H](NC(=O)CNC(=O)[C@H](CCC(=O)O)NC(=O)C(C)(C)NC(=O)[C@@H](N)Cc1ccc(O)cc1)[C@@H](C)O)[C@@H](C)O)[C@@H](C)CC)[C@@H](C)CC)C(=O)N[C@@H](CCC(=O)O)C(=O)NCC(=O)NCC(=O)N1CCC[C@H]1C(=O)N[C@@H](CO)C(=O)N[C@@H](CO)C(=O)NCC(=O)N[C@@H](C)C(=O)N1CCC[C@H]1C(=O)N1CCC[C@H]1C(=O)N1CCC[C@H]1C(=O)N[C@@H](CO)C(N)=O` [Example 249]: the Emax at hGIPR (setting [1]) was found to be 88.9%. In addition, the EC50 was 0.0201 nM at hGIPR (cAMP, 37° C., 0.1% bovine casein (no human serum albumin), read-out: hGIPR EC50, nM (SEM, n)); > 9950 nM at hGCGR (setting [4]); > 9950 nM on hGCGR (cAMP, 37° C., 0.1% bovine casein (no human serum albumin), read-out: hGCGR EC50, nM (SEM, n)); 51.6 nM at hGLP-1R (setting [6]); 0.3 nM at hGLP-1R (cAMP, 37° C., 0.1% bovine casein (no human serum albumin), read-out: hGLP-1R EC50, nM (SEM, n)).

As for `CC[C@H](C)[C@H](NC(=O)[C@H](CC(C)C)NC(=O)[C@](C)(Cc1ccccc1)NC(=O)[C@H](CCC(=O)O)NC(=O)[C@@H](NC(=O)[C@H](Cc1ccccc1)NC(=O)[C@H](CCC(=O)O)NC(=O)C(C)(C)NC(=O)[C@H](CCC(N)=O)NC(=O)[C@H](C)NC(=O)[C@H](CCCCNC(=O)COCCOCCNC(=O)COCCOCCNC(=O)CC[C@H](NC(=O)CCCCCCCCCCCCC(=O)O)C(=O)O)NC(=O)[C@H](CCCN)NC(=O)[C@H](CC(=O)O)NC(=O)[C@H](CC(C)C)NC(=O)[C@](C)(CC(C)C)NC(=O)[C@@H](NC(=O)[C@H](CO)NC(=O)[C@H](Cc1ccncc1)NC(=O)[C@H](CC(=O)O)NC(=O)[C@H](CO)NC(=O)[C@@H](NC(=O)[C@](C)(Cc1ccccc1F)NC(=O)[C@@H](NC(=O)CNC(=O)[C@H](CCC(=O)O)NC(=O)C(C)(C)NC(=O)[C@@H](N)Cc1ccc(O)cc1)[C@@H](C)O)[C@@H](C)O)[C@@H](C)CC)[C@@H](C)CC)C(=O)N[C@@H](CCC(=O)O)C(=O)NCC(=O)NCC(=O)N[C@@H](CCCCNC(=O)COCCOCCNC(=O)COCCOCCNC(=O)CC[C@H](NC(=O)CCCCCCCCCCCCC(=O)O)C(=O)O)C(=O)N[C@@H](CO)C(=O)N[C@@H](CO)C(=O)NCC(=O)N[C@@H](C)C(=O)N1CCC[C@H]1C(=O)N1CCC[C@H]1C(=O)N1CCC[C@H]1C(=O)N[C@@H](CO)C(N)=O` [Example 159] (H-Y[Aib]EGT[αMePhe(2-F)]TSD[4Pal]SI[αMeL]LD[Orn]K([AEEA-AEEA-γGlu-C14 diacid])AQ[Aib]EFIE[αMeF]LIEGGK([AEEA-AEEA-γGlu-C14 diacid])SSGAPPPS-NH2), the Emax stood at 95.3% at hGIPR (setting [2]) and 89.4% on hGLP-1R (HEK293, percent of maximal response to GLP-1(7-36)NH2, 37° C., 0.1% bovine casein, arithmetic mean). The concentration for a half-maximal effect (EC50) at hGIPR (setting [3]) was 0.0198 nM; at hGCGR (setting [5]), > 9950 nM.

As a reminder, the Emax is the maximal effect, on the per cent scale that the assay sets. The EC50 is the concentration needed to bring the measured effect to its halfway point.
